Data from paper PMC10511495, “Dermato-cosmeceutical properties of Pseudobombax ellipticum (Kunth) Dugand: Chemical profiling, in vitro and in silico studies” (Saudi Pharmaceutical Journal : SPJ, 2023).

Columns and labels:
[1] = molecular target: T1, Porcine pancreatic elastase (Sus scrofa, UniProt P00772); test: chromogenic peptide hydrolysis, absorbance at […] nm; type: biochemical; conditions: 0.8 mM N-succinyl-Ala-Ala-Ala-p-nitroanilide; 15 min preincubation
T1 construct: gene CELA1; native pancreatic enzyme preparation; docking used another elastase (Zn metalloprotease, MMP12)

[2] = molecular target: T2, Collagenase from Clostridium histolyticum (ChC); test: FALGPA hydrolysis, absorbance at […] nm; type: biochemical, Hathewaya histolytica; conditions: 2 mM FALGPA solution; 50 mM Tricine, 400 mM NaCl, 10 mM CaCl2, pH 7.5; 15 min preincubation
T2 construct: gene colG; docking used another collagenase (MMP)

T1 sequence (P00772 27-266): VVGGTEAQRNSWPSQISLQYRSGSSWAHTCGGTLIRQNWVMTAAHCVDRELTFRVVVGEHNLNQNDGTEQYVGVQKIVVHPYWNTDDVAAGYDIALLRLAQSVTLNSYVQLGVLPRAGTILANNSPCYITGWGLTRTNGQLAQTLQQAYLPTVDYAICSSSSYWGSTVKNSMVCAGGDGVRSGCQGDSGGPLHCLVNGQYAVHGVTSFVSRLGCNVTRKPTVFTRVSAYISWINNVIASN

SMILES	Parameter / Elastase [1]	Parameter / Collagenase [2]
O=c1cc(CO)occ1O [Kojic acid]	21.60 ± 0.9 µg/mL	
O=c1c(O)c(-c2ccc(O)c(O)c2)oc2cc(O)cc(O)c12 [Quercetin]		24.83 ± 1.8 µg/mL
